Test results reported in US5480914A, “Nonaqueous thixotropic drug delivery suspensions and methods of their use” (priority 1994, dated 1996).
“Also recorded” adds a separate entry of the source. Counter-ions that a name gives are not always drawn. Like-named read-outs stand apart in the source and are kept apart here. Values belong to the compound of their own block, whether it stands above or below them.

Experiments:
[1] = Stability of drugs and suspensions after gamma irradiation (chromatographic analysis)
Procedure: Aseptic formulation of thixotropic pharmaceutical compositions was conducted in accordance with the teachings of the present invention as follows. […] Following the sizing operation, each individual drug was divided into lots, which were then placed in an atmosphere of either argon or air. Each lot was then sterilized using 1.0 or 2.5 Mrad of gamma radiation applied to the lots of each drug under argon or air. Concomitantly, colloidal silicon dioxide was sterilized using dry heat while perfluorodecalin was sterile filtered. The three components were then combined aseptically and blended using a high shear dispenser. The thixotropic pharmaceutical compositions were then analyzed by chromatographic techniques to determine the effect of gamma radiation on the stability of the ten drugs sterilized either in air or in the argon environment.

[2] = cited from earlier work; for Density / Kin. viscosity / Specific heat / Surface tension: 25° C.; for Boiling point: ambient pressure
rabbit eyes [3] = test: Pupil diameter change after pilocarpine; format: in vivo
Procedure: Three different concentrations of pilocarpine were formulated as prior art aqueous solutions and as exemplary nonaqueous thixotropic pharmaceutical compositions according to the teachings of the present invention. Specifically, aqueous solutions and nonaqueous suspensions of 0, 0.1%, 0.5% and 2% pilocarpine were formulated under sterile conditions. The nonaqueous drug suspensions were made using 0.5% CSD uniformly dispersed in perfluorodecalin. Both sets of formulations were administered to rabbit eyes in drop volumes of 8 μl using positive displacement pipettes. Changes in pupil diameter were monitored with three rabbits being used for each concentration of each formulation. In particular, FIG. 12A illustrates the effects of the three different concentrations of […] administered using the nonaqueous vehicle while FIG. 12B illustrates equivalent data for the prior art solubilized aqueous pilocarpine.

glaucomatous monkeys [4] = test: Heart rate after topical levo-bunolol in conscious, glaucomatous monkeys; format: in vivo, monkey
Procedure: (§1) To illustrate the high localized drug bioavailability and correspondingly low systemic side effects of the present invention, a pharmacology study was conducted on conscious, glaucomatous monkeys. Formulations of 0.25% w/v levo-bunolol, used to reduce intraocular pressure in glaucoma patients, were administered as an aqueous solution and as a thixotropic pharmaceutical composition made in accordance with the teachings of the present invention. The monkeys were monitored for reductions in intraocular pressure, indicating the desired localized drug action, and for changes in heart rate, indicating undesirable drug migration away from the target site and into the systemic circulation. The thixotropic compositions were administered in low dose volume 8 μl drops while the aqueous formulations were administered in prior art drop volumes of approximately 35 μl. FIG. 13A is the mean reduction in heart rate for the monkeys treated with the aqueous solution of the drug while FIG. 13B is the mean reduction in heart rate for the monkeys treated with the nonaqueous formulation.

glaucomatous monkeys [5] = test: Intraocular pressure after levo-bunolol in conscious, glaucomatous monkeys; format: in vivo, monkey; details: 0.25% w/v, 8 μl thixotropic versus approximately 35 μl aqueous
Procedure: as §1

[6] = Flow curve analysis fitted to the Cross model (viscosity, yield stress); format: physicochemical
Procedure: In order to determine the stress threshold at which the CSD network collapsed, stress sweeps were run on the five dispersions formulated in Example 1. The stress sweeps were conducted using a Carri-med and CNMR CS 100 rheometer with an optical encoder upgrade. The measuring geometry for all the CSD/perfluorodecalin dispersions was a 4 cm SS Flat Plate with solvent trap. The gap, selected after conducting probe studies using the 2.5% w/v CSD/perfluorodecalin dispersion, was set at 250 μm for the stress sweeps. The measuring geometry for perfluorodecalin was a recessed concentric cylinder and cup set at a 4 mm gap. These stress studies were run at 15° C. to minimize the evaporation of perfluorodecalin. For longer experiments (greater than 10 minutes), a cover was placed over the Flat Plate to prevent perfluorodecalin vaporization. FIG. 1 plots delta versus shear stress for each of the dispersions. Delta is the phase of the actual curve relative to the applied sinusoidal stress. […] This stress threshold is CSD concentration dependent and indicates the presence of an elastic three-dimensional network at low or resting stresses (i.e. low delta values). […]
To further characterize the rheology of the dispersions formulated in Example 1, complete flow curves, fit to the Cross model, were generated over a broad range of shear rates. […] Yield stresses were calculated from flow curve data.

[7] = test system: eyes of New Zealand albino rabbits; test: Ocular toxicity of CSD in perfluorodecalin, gross and slit lamp examination; format: in vivo, rabbit
Procedure: More specifically, CSD dispersions of 2% w/v, 1% w/v and 0.5% w/v were prepared as in Example 1 and topically administered to the rabbits six times, at one hour intervals. Dose volumes of 8 μl were used for each dispersion along with a perfluorodecalin control. Following the six topical installations, each of the eyes was subjected to gross and slit lamp examination.

CHO cells = test: Chinese hamster ovary (CHO) clonal cytotoxicity assay; format: cell-based; details: three-hour exposure
Procedure: To confirm the lack of toxicity associated with the thixotropic compositions of the present invention, a Chinese hamster ovary (CHO) clonal assay was performed to measure the cytotoxic effects of CSD and perfluorodecalin on cell viability. As is well-known in the art, the CHO clonal assay is extremely sensitive and is often used to test pharmaceutical composition toxicity. Different cell populations were exposed to 0.5% w/v CSD in perfluorodecalin, and from 0.01% to 0.1% w/v AGN 191053 dispersed in a suspension of 0.5% w/v CSD in perfluorodecalin. Straight perfluorodecalin was used as a negative control with a three-hour exposure period for each formulation tested.

rabbit eyes [8] = test system: rabbit eyes
Procedure: As a control, an aqueous solution containing the same amount of drug was prepared. The final concentration of the brimonidine in both formulations was 0.1% w/v. The nonaqueous thixotropic compositions of the present invention were administered in a low dose volume of 8 μl, while the prior art aqueous control was administered in a volume of 50 μl. The drugs were administered to one eye of the rabbit with both eyes subsequently monitored for changes in intraocular pressure.

[9] = 1.0 or 2.5 Mrad, under argon or air

- activity lost after gamma radiation [1]: No more than 5%
Structure (SMILES): CC1COc2c(N3CCN(C)CC3)c(F)cc3c(=O)c(C(=O)O)cn1c23 (centres unmarked) [ofloxacin]

Structure (SMILES): FC1(F)C(F)(F)C(F)(F)C2(F)C(F)(C1(F)F)C(F)(F)C(F)(F)C1(F)C(F)(F)C(F)(F)C(F)(F)C(F)(F)C12F (centres unmarked) [PPP, perfluoroperhydrophenanthrene]
- Density [2]: 2.016 gms/mL
- Kin. viscosity [2]: 8.0 cSt
- Specific heat [2]: 0.27 g-cal/gm
- Surface tension [2]: 21.6 dynes/cm
- Boiling point [2]: 215 °C

- activity lost after gamma radiation [1]: No more than 5%
Structure (SMILES): CC(C(=O)O)c1ccc(-c2ccccc2)c(F)c1 (centres unmarked) [sodium flurbiprofen]

Structure (SMILES): O [Water]
- Density [2]: 1.000 gms/mL
- Kin. viscosity [2]: 1.00 cSt
- Specific heat [2]: 1.00 g-cal/gm
- Surface tension [2]: 72.0 dynes/cm

Structure (SMILES): CC(=O)OCC(=O)[C@@]1(O)CC[C@H]2[C@@H]3CCC4=CC(=O)C=C[C@]4(C)[C@H]3[C@@H](O)C[C@@]21C [prednisolone acetate]
- activity lost after gamma radiation [1, 9]: No more than 5%

Structure (SMILES): CC[C@@H]1C(=O)OC[C@@H]1Cc1cncn1C [pilocarpine]
- recovery period of pupil diameter (rabbit eyes [3]; nonaqueous formulation versus aqueous): prolonged recovery period
- reduction in pupil size (rabbit eyes [3]; nonaqueous thixotropic versus aqueous, equivalent drug concentrations, 8 μl): greater pharmaceutical effect, i.e. a reduction in pupil size

Structure (SMILES): Brc1c(NC2=NCCN2)ccc2nccnc12 [AGN 190342]
- activity lost after gamma radiation [1]: No more than 5%

- activity lost after gamma radiation [1, 9]: No more than 5%
Structure (SMILES): CC(C)(C)NC[C@H](O)COc1nsnc1N1CCOCC1 [timolol]

- activity lost after gamma radiation [1]: No more than 5%
Structure (SMILES): O=C(O)c1cc(=O)c2c(OCC(O)COc3cccc4oc(C(=O)O)cc(=O)c34)cccc2o1 [sodium cromoglycate]

Structure (SMILES): CC(C)(C)NC[C@H](O)COc1cccc2c1CCCC2=O [levo-bunolol]
- decrease in heart rate, thixotropic relative to aqueous solution (glaucomatous monkeys [4]; 0.25% w/v, 8 μl thixotropic versus approximately 35 μl aqueous): 65%
- heart rate response (glaucomatous monkeys [4]; prior art aqueous delivery vehicle): undesirable decrease in heart rate
- reduction in intraocular pressure, thixotropic versus aqueous (glaucomatous monkeys [5]): almost identical

Structure (SMILES): CNCC(O)c1ccc(OC(=O)C(C)(C)C)c(OC(=O)C(C)(C)C)c1 (centres unmarked) [dipivalylepinephrine HCl]
- activity lost after gamma radiation [1]: No more than 5%

Structure (SMILES): FC1(F)C(F)(F)C(F)(F)C2(F)C(F)(F)C(F)(F)C(F)(F)C(F)(F)C2(F)C1(F)F (centres unmarked) [perfluorodecalin, Perfluoro(decahydronaphthalene)]
- viscosity of pure perfluorodecalin without CSD [6]: 9.2 centipoise
- Newtonian viscosity ([6]; 0% CSD): 0.092 poise
- toxicity (cornea) ([7]; 6 topical doses of 8 μl at one hour intervals): no discomfort, irritation, or toxicity
- eye discomfort ([7]; rabbit, in vivo): no discomfort, irritation, or toxicity
- irritation (conjunctiva) ([7]; rabbit, in vivo): no discomfort, irritation, or toxicity
- chemical toxicity to CHO cells (CHO cells): Neither the perfluorodecalin nor the CSD/perfluorodecalin formulations exhibited any chemical toxicity
- Density [2]: 1.929 gms/mL
- Kin. viscosity [2]: 2.9 cSt
- Specific heat [2]: 0.22 g-cal/gm
- Surface tension [2]: 19.3 dynes/cm
- Boiling point [2]: 142 °C
- specific gravity ([2]; used to convert drop weight to volume): 1.93 g/mL

- activity lost after gamma radiation [1]: No more than 5%
Structure (SMILES): CC(C)(C)NC[C@H](O)COc1cccc2c1CCCC2=O [levo-bunolol HCl]

- activity lost after gamma radiation [1]: No more than 5%
Structure (SMILES): Cc1nnc(SCC2=C(C(=O)O)N3C(=O)[C@@H](NC(=O)Cn4cnnn4)[C@H]3SC2)s1 [sodium cephazolin]

Structure (SMILES): Brc1c(NC2=NCCN2)ccc2nccnc12 [brimonidine]
- peak mean intraocular pressure reduction, treated eye (rabbit eyes [8]; 0.1% w/v, 8 μl thixotropic versus 50 μl aqueous): comparable to the much larger aqueous based prior art dosage
- intraocular pressure response, untreated eye (rabbit eyes [8]; aqueous solution 0.1% w/v, 50 μl): undesirable pressure reduction in untreated eyes
- intraocular pressure response, untreated eye (rabbit eyes [8]; thixotropic composition 0.1% w/v, 8 μl, versus aqueous control): significantly less intraocular pressure response in the untreated eye; also recorded: significant lower decrease in intraocular pressure in the untreated eyes
